Data taken from ChEMBL document CHEMBL2384934, “Discovery of 3-phenyl-1H-5-pyrazolylamine derivatives containing a urea pharmacophore as potent and efficacious inhibitors of FMS-like tyrosine kinase-3 (FLT3)” (Bioorg Med Chem, 2013).
Active and inactive are the calls of the source. No cut-off for these calls is given here.

What was measured:
[1] = Plasma clearance in Sprague-Dawley rat at 2 mg/kg, iv; format: ADME, organism-based; design: dose 2 mg/kg, route intravenous
[2] = tested on: U-937; assay: cells; conditions: Homo sapiens, U-937, 72 h
Description: Cytotoxicity against human FLT3 negative U937 cells after 72 hrs by MTS assay

[3] = tested on: MOLM-13; assay: Antitumor activity against human MOLM13 cells xenografted in nu/nu mouse at 10 mg/kg, iv qd administered on days 1 to 5 and days 8 to 12 measured on day 16; format: functional; conditions: MOLM-13, 384 h, read-out: TGI
[4] = target: Glycogen synthase kinase-3 alpha (Homo sapiens) (UniProt P49840); assay: Inhibition of GSK3A (unknown origin) at 1 uM
[5] = tested on: K562; assay: cells; conditions: Homo sapiens, K562, 72 h
Description: Cytotoxicity against human FLT3-negative K562 cells harboring wild type BCR/ABL after 72 hrs by MTS assay

[6] = target: Non-receptor tyrosine-protein kinase TYK2 (Homo sapiens) (UniProt P29597); assay: Inhibition of TYK2 (unknown origin) at 1 uM
[7] = target: Hepatocyte growth factor receptor (Homo sapiens) (UniProt P08581); assay: Inhibition of MET (unknown origin) at 1 uM
Hepatocyte growth factor receptor (Homo sapiens), sequence (P08581 whole entry): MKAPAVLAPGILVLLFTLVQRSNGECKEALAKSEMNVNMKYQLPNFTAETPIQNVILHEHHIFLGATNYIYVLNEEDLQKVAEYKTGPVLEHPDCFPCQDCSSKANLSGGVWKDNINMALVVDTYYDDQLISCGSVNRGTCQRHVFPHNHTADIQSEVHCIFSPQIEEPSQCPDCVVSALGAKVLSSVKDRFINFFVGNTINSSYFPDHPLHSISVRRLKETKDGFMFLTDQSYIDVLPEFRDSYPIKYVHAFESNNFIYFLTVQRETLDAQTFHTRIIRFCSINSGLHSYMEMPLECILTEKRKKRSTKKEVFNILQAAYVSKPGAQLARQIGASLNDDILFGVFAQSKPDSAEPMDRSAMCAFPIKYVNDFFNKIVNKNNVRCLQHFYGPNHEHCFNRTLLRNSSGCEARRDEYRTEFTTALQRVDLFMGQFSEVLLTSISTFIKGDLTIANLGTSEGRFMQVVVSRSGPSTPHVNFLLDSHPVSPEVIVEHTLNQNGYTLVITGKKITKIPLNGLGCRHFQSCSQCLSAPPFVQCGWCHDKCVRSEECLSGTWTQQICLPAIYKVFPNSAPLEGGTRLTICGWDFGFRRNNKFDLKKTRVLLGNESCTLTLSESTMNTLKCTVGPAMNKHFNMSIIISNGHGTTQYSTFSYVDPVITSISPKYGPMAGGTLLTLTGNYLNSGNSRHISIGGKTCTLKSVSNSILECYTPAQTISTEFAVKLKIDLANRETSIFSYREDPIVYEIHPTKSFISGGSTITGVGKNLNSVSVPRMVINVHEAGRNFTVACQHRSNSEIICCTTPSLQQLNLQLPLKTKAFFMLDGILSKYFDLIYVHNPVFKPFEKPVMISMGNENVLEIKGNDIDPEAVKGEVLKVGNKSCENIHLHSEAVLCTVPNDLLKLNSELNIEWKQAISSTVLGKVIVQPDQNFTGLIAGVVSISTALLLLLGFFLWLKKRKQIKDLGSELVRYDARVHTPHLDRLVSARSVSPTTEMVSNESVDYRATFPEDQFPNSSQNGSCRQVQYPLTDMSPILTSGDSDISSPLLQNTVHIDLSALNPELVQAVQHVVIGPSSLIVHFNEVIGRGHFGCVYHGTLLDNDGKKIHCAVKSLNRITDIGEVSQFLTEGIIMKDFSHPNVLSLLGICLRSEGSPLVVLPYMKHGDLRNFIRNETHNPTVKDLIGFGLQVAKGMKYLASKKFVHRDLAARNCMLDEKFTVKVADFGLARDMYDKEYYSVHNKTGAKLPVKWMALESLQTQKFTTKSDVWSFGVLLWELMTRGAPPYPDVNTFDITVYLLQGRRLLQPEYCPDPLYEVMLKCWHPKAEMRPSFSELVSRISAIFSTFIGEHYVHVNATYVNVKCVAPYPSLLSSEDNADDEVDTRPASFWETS

[8] = target: T1, Vascular endothelial growth factor receptor 2 (Homo sapiens, UniProt P35968); assay: Inhibition of KDR (unknown origin) at 1 uM by kinase Glo assay
T1 sequence (P35968 whole entry): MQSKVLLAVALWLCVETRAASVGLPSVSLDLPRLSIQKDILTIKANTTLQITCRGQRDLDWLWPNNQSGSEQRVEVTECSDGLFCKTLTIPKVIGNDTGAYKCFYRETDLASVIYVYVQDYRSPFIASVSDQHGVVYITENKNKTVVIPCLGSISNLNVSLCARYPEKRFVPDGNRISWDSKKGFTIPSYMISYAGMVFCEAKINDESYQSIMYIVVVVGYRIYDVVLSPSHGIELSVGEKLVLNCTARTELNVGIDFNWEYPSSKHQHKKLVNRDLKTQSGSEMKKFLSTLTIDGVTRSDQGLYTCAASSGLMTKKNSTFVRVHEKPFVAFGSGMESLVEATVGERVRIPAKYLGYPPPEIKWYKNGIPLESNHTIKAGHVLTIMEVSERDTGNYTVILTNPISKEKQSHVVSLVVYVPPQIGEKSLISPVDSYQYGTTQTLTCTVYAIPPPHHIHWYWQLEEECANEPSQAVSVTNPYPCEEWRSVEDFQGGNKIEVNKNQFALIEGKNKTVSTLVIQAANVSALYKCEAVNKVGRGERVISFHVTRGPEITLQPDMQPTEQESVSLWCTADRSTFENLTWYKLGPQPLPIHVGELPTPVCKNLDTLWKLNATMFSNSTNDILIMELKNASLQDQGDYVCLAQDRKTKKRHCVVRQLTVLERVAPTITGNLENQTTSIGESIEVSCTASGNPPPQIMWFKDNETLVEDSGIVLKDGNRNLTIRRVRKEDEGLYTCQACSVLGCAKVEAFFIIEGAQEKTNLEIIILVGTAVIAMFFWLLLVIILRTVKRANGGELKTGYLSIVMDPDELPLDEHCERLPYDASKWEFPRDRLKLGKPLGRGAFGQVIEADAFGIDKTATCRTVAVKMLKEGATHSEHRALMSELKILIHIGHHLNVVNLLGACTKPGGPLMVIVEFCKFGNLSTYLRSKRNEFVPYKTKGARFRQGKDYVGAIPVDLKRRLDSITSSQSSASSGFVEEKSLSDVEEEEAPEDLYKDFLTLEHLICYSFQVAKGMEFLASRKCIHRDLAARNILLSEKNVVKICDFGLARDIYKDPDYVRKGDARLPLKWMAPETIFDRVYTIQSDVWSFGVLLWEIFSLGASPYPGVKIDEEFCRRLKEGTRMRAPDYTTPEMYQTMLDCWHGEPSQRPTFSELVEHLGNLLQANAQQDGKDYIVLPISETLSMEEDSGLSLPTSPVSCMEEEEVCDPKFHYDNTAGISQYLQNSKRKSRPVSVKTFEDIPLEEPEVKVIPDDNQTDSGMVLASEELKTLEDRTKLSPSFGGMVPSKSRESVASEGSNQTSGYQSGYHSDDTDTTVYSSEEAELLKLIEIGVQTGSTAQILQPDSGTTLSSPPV

[9] = target: Mitogen-activated protein kinase 14 (Homo sapiens) (UniProt Q16539); assay: Inhibition of MAPK14 (unknown origin) at 1 uM
Mitogen-activated protein kinase 14 (Homo sapiens), sequence (Q16539 whole entry): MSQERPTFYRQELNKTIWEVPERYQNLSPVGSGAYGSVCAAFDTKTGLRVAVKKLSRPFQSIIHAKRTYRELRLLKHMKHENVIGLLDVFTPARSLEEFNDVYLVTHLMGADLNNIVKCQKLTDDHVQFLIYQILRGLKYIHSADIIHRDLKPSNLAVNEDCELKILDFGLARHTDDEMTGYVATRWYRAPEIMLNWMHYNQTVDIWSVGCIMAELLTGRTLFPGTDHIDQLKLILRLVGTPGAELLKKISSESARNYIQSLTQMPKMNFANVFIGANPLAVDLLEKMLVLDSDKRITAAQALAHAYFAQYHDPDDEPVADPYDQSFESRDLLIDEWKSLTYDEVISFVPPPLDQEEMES

[10] = target: Tyrosine-protein kinase BTK (Homo sapiens) (UniProt Q06187); assay: Inhibition of BTK (unknown origin) at 1 uM
Tyrosine-protein kinase BTK (Homo sapiens), sequence (Q06187 whole entry): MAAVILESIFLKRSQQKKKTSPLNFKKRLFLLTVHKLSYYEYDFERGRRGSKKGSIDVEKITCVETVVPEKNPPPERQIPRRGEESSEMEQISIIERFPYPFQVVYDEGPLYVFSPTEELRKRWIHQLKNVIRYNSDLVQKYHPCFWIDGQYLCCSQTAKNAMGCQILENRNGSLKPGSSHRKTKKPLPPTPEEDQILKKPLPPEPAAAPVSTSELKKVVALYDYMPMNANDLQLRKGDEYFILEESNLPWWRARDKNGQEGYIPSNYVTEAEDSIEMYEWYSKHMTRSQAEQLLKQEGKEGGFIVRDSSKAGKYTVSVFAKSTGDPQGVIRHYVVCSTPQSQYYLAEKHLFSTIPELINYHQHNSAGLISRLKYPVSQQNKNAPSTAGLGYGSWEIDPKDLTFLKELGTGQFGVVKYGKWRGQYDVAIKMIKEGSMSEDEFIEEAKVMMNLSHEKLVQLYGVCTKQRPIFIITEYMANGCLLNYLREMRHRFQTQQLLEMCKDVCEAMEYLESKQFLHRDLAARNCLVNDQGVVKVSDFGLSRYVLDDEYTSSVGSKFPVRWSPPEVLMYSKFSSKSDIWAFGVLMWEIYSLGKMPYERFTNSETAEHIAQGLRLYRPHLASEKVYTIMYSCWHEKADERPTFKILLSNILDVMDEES

[11] = tested on: MOLM-13; assay: Antitumor activity against human MOLM13 cells xenografted in nu/nu mouse at 3 mg/kg, iv qd administered on days 1 to 5 and days 8 to 12 measured on day 11; format: functional; conditions: MOLM-13, 264 h, read-out: TGI
[12] = target: Mast/stem cell growth factor receptor Kit (Homo sapiens) (UniProt P10721); assay: Inhibition of KIT (unknown origin) at 1 uM
[13] = target: Vascular endothelial growth factor receptor 3 (Homo sapiens) (UniProt P35916); assay: Inhibition of FLT4 (unknown origin) at 1 uM by kinase Glo assay
[14] = target: CDK2/Cyclin A2 (Homo sapiens) (UniProt P24941+P20248); assay: Inhibition of CDK2/cyclin A (unknown origin) at 1 uM; format: protein-complex assay
[15] = target: Dual specificity mitogen-activated protein kinase kinase 1 (Homo sapiens) (UniProt Q02750); assay: Inhibition of MAP2K1 (unknown origin) at 1 uM
Dual specificity mitogen-activated protein kinase kinase 1 (Homo sapiens), sequence (Q02750 whole entry): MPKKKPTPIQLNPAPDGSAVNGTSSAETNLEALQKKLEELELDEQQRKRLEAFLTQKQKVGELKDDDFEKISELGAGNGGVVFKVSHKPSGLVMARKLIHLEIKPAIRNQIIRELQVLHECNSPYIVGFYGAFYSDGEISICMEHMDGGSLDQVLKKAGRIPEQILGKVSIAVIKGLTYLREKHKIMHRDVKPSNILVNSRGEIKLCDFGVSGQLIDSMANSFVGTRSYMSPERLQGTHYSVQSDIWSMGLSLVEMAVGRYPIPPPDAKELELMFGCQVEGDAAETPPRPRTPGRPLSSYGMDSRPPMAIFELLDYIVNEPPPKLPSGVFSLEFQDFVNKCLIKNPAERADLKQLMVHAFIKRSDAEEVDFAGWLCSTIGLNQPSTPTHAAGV

[16] = target: Mitogen-activated protein kinase 10 (Homo sapiens) (UniProt P53779); assay: Inhibition of MAPK10 (unknown origin) at 1 uM
[17] = tested on: MOLM-13; assay: Antitumor activity against human MOLM13 cells xenografted in nu/nu mouse at 10 mg/kg, iv qd administered on days 1 to 5 and day 8 to 12 measured after 48 days; format: functional; conditions: read-out: TGI
[18] = target: T1, Vascular endothelial growth factor receptor 2; assay: biochemical; format: cell-based, Sf9
Description: Inhibition of recombinant GST tagged VEGFR2 (789 to 1356) (unknown origin) transfected in insect sf9 cells after 120 mins by wallac counting analysis

[19] = target: Tyrosine-protein kinase ABL1 (Homo sapiens) (UniProt P00519); assay: Inhibition of ABL1 (unknown origin) at 1 uM
[20] = target: Serine/threonine-protein kinase Chk2 (Homo sapiens) (UniProt O96017); assay: Inhibition of CHK2 (unknown origin) at 1 uM by kinase Glo assay
Serine/threonine-protein kinase Chk2 (Homo sapiens), sequence (O96017 whole entry): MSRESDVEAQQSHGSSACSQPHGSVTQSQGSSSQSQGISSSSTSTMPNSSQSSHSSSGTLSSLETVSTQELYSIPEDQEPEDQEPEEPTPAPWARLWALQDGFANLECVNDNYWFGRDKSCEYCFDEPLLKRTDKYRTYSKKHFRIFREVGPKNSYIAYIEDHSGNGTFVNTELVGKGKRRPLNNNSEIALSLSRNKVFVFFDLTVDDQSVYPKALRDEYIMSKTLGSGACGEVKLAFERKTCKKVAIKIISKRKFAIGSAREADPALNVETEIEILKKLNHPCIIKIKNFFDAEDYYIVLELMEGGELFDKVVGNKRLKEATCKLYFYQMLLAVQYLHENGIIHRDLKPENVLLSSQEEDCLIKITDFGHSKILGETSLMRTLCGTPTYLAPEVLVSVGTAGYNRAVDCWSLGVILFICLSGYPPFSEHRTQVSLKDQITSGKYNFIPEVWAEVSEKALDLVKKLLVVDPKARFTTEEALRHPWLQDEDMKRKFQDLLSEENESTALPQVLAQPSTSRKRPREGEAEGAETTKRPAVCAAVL

[21] = tested on: MOLM-13; assay: Antitumor activity against human MOLM13 cells xenografted in nu/nu mouse at 1mg/kg, iv qd administered on days 1 to 5 and days 8 to 12 measured on day 11; format: functional; conditions: MOLM-13, iv, 264 h, read-out: TGI
[22] = target: T2, Aurora kinase A (Homo sapiens, UniProt O14965); assay: biochemical
T2 sequence (O14965 whole entry): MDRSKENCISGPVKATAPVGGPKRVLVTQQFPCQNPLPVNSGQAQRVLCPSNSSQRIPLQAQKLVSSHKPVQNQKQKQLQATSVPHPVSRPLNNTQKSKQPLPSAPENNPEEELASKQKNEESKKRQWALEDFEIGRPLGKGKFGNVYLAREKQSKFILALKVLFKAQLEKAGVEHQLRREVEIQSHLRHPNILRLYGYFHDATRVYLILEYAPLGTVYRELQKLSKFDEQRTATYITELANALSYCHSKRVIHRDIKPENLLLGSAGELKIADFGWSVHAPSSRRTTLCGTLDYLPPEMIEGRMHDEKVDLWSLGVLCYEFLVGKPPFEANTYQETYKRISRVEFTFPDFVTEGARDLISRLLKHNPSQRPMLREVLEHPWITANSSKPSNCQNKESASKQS
Description: Inhibition of recombinant GST tagged Aurora A kinase (123 to 401) (unknown origin) transfected in insect sf9 cells after 90 mins by wallac counting analysis

[23] = tested on: MOLM-13; assay: Antitumor activity against human MOLM13 cells xenografted in nu/nu mouse at 1mg/kg, iv qd administered on days 1 to 5 and days 8 to 12 measured for 5 days; format: functional, organism-based
[24] = target: T3, Receptor-type tyrosine-protein kinase FLT3 (Homo sapiens, UniProt P36888); assay: biochemical; format: cell-based, Sf9
T3 sequence (P36888 whole entry): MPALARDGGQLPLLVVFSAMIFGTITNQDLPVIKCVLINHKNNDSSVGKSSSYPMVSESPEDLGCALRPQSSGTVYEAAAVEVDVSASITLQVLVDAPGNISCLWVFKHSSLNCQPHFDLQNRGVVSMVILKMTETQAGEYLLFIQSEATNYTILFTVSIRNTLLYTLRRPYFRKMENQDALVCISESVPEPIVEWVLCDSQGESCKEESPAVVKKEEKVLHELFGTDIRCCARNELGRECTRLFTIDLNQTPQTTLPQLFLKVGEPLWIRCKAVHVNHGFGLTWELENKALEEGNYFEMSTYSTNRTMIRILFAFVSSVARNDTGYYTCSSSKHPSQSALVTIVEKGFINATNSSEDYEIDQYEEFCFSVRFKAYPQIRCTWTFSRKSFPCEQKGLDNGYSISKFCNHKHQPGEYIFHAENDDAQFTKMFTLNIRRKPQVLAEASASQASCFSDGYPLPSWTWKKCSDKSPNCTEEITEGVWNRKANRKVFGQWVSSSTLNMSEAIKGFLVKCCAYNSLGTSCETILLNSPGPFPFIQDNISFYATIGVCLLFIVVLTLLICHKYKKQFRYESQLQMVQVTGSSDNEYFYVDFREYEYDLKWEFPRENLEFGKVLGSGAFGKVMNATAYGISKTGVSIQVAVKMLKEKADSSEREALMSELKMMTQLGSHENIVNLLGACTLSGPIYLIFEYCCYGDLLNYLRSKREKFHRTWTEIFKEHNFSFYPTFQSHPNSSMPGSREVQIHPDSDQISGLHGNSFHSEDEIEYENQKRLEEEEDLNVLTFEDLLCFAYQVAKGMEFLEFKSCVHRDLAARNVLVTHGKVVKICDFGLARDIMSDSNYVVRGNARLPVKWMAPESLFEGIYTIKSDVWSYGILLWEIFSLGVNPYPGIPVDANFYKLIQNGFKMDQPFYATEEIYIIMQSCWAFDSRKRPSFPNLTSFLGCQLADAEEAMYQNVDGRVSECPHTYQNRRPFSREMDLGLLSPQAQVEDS
Description: Inhibition of wild type GST tagged FLT3 kinase (567 to 993) (unknown origin) transfected in insect sf9 cells after 4 hrs by wallac counting analysis

CC(C)(C)c1cc(NC(=O)NCc2ccc(-c3cc(NC(=O)c4ccc(OCCN5CCOCC5)cc4)[nH]n3)cc2)no1
clearance [1]: 10.7 mL/min/kg
GI50 [2]: > 20000 nM
inhibition in vivo at 10 mg/kg [3]: 84%
inhibition [4]: 6%
GI50 [5]: 11800 nM
inhibition [6]: 86%
inhibition [7]: 2%
inhibition [8]: 99%
inhibition [9]: 3%
inhibition [10]: -6%
inhibition in vivo at 3 mg/kg [11]: 7%
inhibition [12]: 68%
inhibition [13]: 86%
inhibition [14]: 5%
inhibition [15]: 13%
inhibition [16]: -3%
inhibition in vivo at 10 mg/kg [17]: 70%
IC50 [18]: 28 nM
inhibition [19]: 21%
inhibition [20]: 10%
inhibition in vivo at 1 mg/kg [21]: 66%
IC50 [22]: > 1000 nM
inhibition [23]: Active
IC50 [24]: 18 nM
